# In patent publication US20240199964A1, “COMPOUNDS FOR MARKING LIQUIDS” (KUANTAG NANOTEKNOLOJILER GELISTIRME VE URETIM A.S., priority 2022, published 2024):
# Key:
# Assay type in all cases: physicochemical
# [1] = fluorescence emission spectroscopy of marker in xylene solution; settings: for Em. max. (estimated): not experimental, estimated based on the values of formulas (II) and (III); for Em. max.: xylene solution having 0.5 ppm marker material, excitation 543 nm for (II), 551 nm for (III), experimental
# Text: (§1) Chemical structures of other examples of anthrapyridone marker compounds derived based on the general formula (I) may be seen below. […] Table 1 identifies side groups of each anthrapyridone compound based on the general formula (I) and their absorption and emission characteristics. In Table 1, only the absorbance maximum and emission maximum values for the anthrapyridone compound markers with formula (II) and formula (III) are experimental. In the spectroscopic measurements, each test sample includes a xylene solution having 0.5 ppm marker material. For emission measurements 543 and 551 nm excitation wavelength are used, respectively. The absorbance maximum and emission maximum values of the formulas (IV)-(X) are not experimental values. These values are estimated values based on the values of the formulas (II) and (III).
# [2] = absorbance spectroscopy of marker in xylene solution; settings: for Ab. max. (estimated): not experimental, estimated based on the values of formulas (II) and (III); for Ab. max.: xylene solution having 0.5 ppm marker material, experimental
# Text: as §1
# [3] = absorbance spectrum (UV-Vis) of marker in diesel fuel, FIG. 2A; settings: diesel solution, about 0.5 ppm marker material
# Text: FIG. 2A is a graph of an absorbance spectrum 10A of the marker material (the anthrapyridone compound of formula (III)) in diesel fuel. The absorbance spectrum 10A includes two absorbance maximums 11A and 11B at about 520 nm and about 550 nm wavelength values of the visible radiation range, respectively. A diesel solution having about 0.5 ppm marker material concentration may be used as a test sample for this spectral analysis. The absorbance spectroscopy instrument may be any type of absorbance spectroscopy instrument that is able to take absorbance spectrum in visible radiation region, i.e., 400-600 nm.
# The absorbance spectrum shown in FIG. 2A is taken by a UV-Vis Spectroscopy instrument from Thermo Scientific Co in a test range of about 400-650 nm. The fluorescence spectrum shown in FIG. 2B is taken by a fluorescence spectroscopy instrument from Edinburgh Co.
Em. max. (estimated) [1],Ab. max. (estimated) [2],Em. max. [1],Ab. max. [2],absorbance maximum 11A [3],absorbance maximum 11B [3],SMILES
575-600 nm,540-560 nm,,,,,CNc1ccc2c3c(cc(=O)n2C)-c2ccccc2C(=O)c13 [formula (V)]
575-600 nm,540-560 nm,,,,,CCCCC(CC)CNc1ccc2c3c(cc(=O)n2C)-c2ccccc2C(=O)c13 (centres unmarked) [formula (VII)]
575-600 nm,540-560 nm,,,,,"Cn1c(=O)cc2c3c(c(NCc4ccccc4)ccc31)C(=O)c1ccccc1-2 [formula (IV), Solvent Red 150]"
575-600 nm,540-560 nm,,,,,O=C1c2ccccc2-c2cc(=O)n(Cc3ccccc3)c3ccc(NCc4ccccc4)c1c23 [formula (X)]
,,580 nm,551 nm,about 520 nm,about 550 nm,"Cn1c(=O)cc2c3c(c(NC4CCCCC4)ccc31)C(=O)c1ccccc1-2 [formula (III), Solvent Red 149]"
575-600 nm,540-560 nm,,,,,CCCCC(CC)CNc1ccc2c3c(cc(=O)n2CC(CC)CCCC)-c2ccccc2C(=O)c13 (centres unmarked) [formula (VI)]
575-600 nm,540-560 nm,,,,,CCCCCCCCCCCNc1ccc2c3c(cc(=O)n2C)-c2ccccc2C(=O)c13 [formula (IX)]
575-600 nm,540-560 nm,,,,,O=C1c2ccccc2-c2cc(=O)n(C3CCCCC3)c3ccc(NC4CCCCC4)c1c23 [formula (VIII)]
,,no emission,543 nm,,,"Cc1ccc(Nc2ccc3c4c(cc(=O)n3C)-c3ccccc3C(=O)c24)cc1 [formula (II), Solvent Red 52]"
